Broadly, the MIC is the lowest concentration found to suppress growth. In general, ED50 refers to the dose at which the effect has come halfway, by size or by number of responders. Read a low ED50 as an effect at a small dose.

Each structure is given as a SMILES string. In brackets after ≈: the same amount, converted by molar mass. Counter-ions that a name gives are not always drawn. Like-named read-outs stand apart in the source and are kept apart here.

Experiment [1] concerns S. aureus DRCC 035 MSSA ATCC 29213. Kind of experiment: In vitro MIC by broth microdilution. In kind it is cell-based. Particulars: Staphylococcus aureus. The method, then: (§1) Minimum Inhibition Concentrations (MICs) were determined by broth microdilution technique as per the guidelines prescribed in the fifth edition of Approved Standards NCCLS document M7-A5 Vol 20-No 2, 2000 Villinova, Pa. (Currently Clinical and Laboratory Standards Institute (CLSI)). Initial stock solution of the compound of formula (I) was prepared in DMSO. Subsequent two fold dilutions were carried out in sterile Cation adjusted Muller Hinton Broth (Difco) (MHB). Frozen cultures stocks were inoculated in 25 ml sterile MHB in 50 ml Erlyn Meyer flasks.
(§2) Composition of MHB is as follows: Beef Extract Powder—2.0 grams/litre, Acid Digest of Casein—17.5 grams/litre, Soluble Starch—1.5 grams/litre, Final pH 7.3±0.1
(§3) Flasks were incubated for 4 to 5 hours at 36±1° C. on a rotary shaker at 110 rpm. Inoculum was prepared by diluting the culture in sterile MHB to obtain a turbidity of 0.5 McFarland standard. This corresponds to 1−2×10^8 CFU/mL. The stock was further diluted to achieve a final inoculum density of 5×10^4 to 1×10^5 CFU/well. The plates were incubated 18 to 20 hours at 37° C.
For orientation: In broth dilution the organism is exposed to a series of concentrations in liquid medium.

In experiment [2] the test system is S. aureus DRCC 019 MRSA ATCC 33591. Kind of experiment: In vitro MIC by broth microdilution. The class given is cell-based. Particulars: Staphylococcus aureus. The procedure: as §1, §2, §3
The test system of experiment [3] is E. coli DRCC 018 ATCC 25922. Kind of experiment: In vitro MIC by broth microdilution. In kind it is cell-based. Particulars: Escherichia coli, ATCC25922. The method, then: as §1, §2, §3
Experiment [4] relates to E. faecalis DRCC 153 VRE NCTC 12201. Kind of experiment: In vitro MIC by broth microdilution. The class given is cell-based. Particulars: Enterococcus faecalis. The procedure: as §1, §2, §3
The test system of experiment [5] is P. aeru DRCC 024 ATCC 27853. Kind of experiment: In vitro MIC by broth microdilution. The class given is cell-based. Particulars: Pseudomonas aeruginosa, ATCC27853. The method, then:
as §1, §2, §3

In experiment [6] the test system is E. faecalis DRCC 034 VSE ATCC 29212. Description: In vitro MIC by broth microdilution. The class given is cell-based. Particulars: Enterococcus faecalis, ATCC29212. The procedure: as §1, §2, §3
Experiment [7] relates to E. faecium DRCC 154 VRE NCTC 12202. Description: In vitro MIC by broth microdilution. The class given is cell-based. Particulars: Enterococcus faecium. The procedure: as §1, §2, §3
Experiment [8] relates to K. pn DRCC 575 ATCC 700603. Kind of experiment: In vitro MIC by broth microdilution. The class given is cell-based. Particulars: Klebsiella pneumoniae, ATCC700603. The procedure: as §1, §2, §3
For experiment [9], the system named is S. pneumoniae ATCC 49619. Kind of experiment: ED50 in murine systemic infection model. Particulars: Streptococcus pneumoniae, 168 h, Swiss Albino Mice, survival 7 days. In kind it is in vivo. The method, then: (§4) Animals: Specific pathogen free outbred, female and male Swiss Albino Mice, 4-6 weeks old, weighing 25±2 grams.
(§5) Inoculum Preparation: • Systemic infection model is performed based on LD50 of an organism. 10-1000×LD50 or 1-5 MLD (minimum lethal dose) is used as an infecting inoculum. • Organisms are sub-cultured on blood agar plates and incubated at 35-37° C. for 18-24 hours. Inoculum is prepared in 0.9% normal saline and optical density adjusted at 560 nm to yield an inoculum density of 10^5 to 10^9CFU/mL based on the test organism. • Adjusted inoculum is further diluted 1:1 in mucin solution to achieve a final mucin concentration of 5-7.5% (wt/vol). • Log CFUs of inoculum is determined by serially diluting the inoculum in normal saline and plating on suitable agar plates. Plates are incubated at 35-37° C. for 18-24 hours and counts determined.
(§6) Infection: • Animals are infected with 0.5 ml of inoculum by intra-peritoneal route. • Two groups of mice left untreated, serve as untreated control.
(§7) Treatment: • For single dose, compound of formula (I) is administered at 0 to 3 hour post-infection by p.o./s.c./i.v. route. • For b.i.d., compound of formula (I) administered at 0 to 3 hour post-infection for first dose and at 4 to 6 hours post-infection for second dose by p.o./s.c./i.v. route.
(§8) End point: Survival/death in each treated and untreated groups are monitored for 5 days (7 days for S. pneumoniae). The ED50 values are determined by probit analysis.

In experiment [10] the test system is MRSA DRCC 446. Description: ED50 in murine systemic infection model. In kind it is in vivo. Particulars: Staphylococcus aureus, 120 h, Swiss Albino Mice, survival 5 days. The procedure: as §4, §5, §6, §7, §8
For experiment [11], the system named is S. aureus DRCC 035 (ATCC 29213). Kind of experiment: ED50 in murine systemic infection model. Particulars: Staphylococcus aureus, 120 h, Swiss Albino Mice, survival 5 days. The class given is in vivo. The method, then: as §4, §5, §6, §7, §8
In experiment [12] the test system is E. Coli ATCC 25992. Kind of experiment: ED50 in murine systemic infection model. Particulars: Escherichia coli, 120 h, Swiss Albino Mice, survival 5 days. The class given is in vivo. The procedure: as §4, §5, §6, §7, §8
For experiment [13], the system named is E faecalis DRCC 543. Kind of experiment: ED50 in murine systemic infection model. Particulars: Enterococcus faecalis, 120 h, Swiss Albino Mice, survival 5 days. In kind it is in vivo. The method, then: as §4, §5, §6, §7, §8
Setting [14] is: S. aureus DRCC 035, MSSA, ATCC 29213, read-out: MIC.
[15] abbreviates: S. aureus DRCC 019, MRSA, ATCC 33591, read-out: MIC.
Setting [16] is: E. coli DRCC 018, ATCC 25922, read-out: MIC.
The mark [17] stands for this setting: E. faecalis DRCC 153, VRE, NCTC 12201, read-out: MIC.
Where [18] appears, read: P. aeru DRCC 024, ATCC 27853, read-out: MIC.
The mark [19] stands for this setting: E. faecalis DRCC 034, VSE, ATCC 29212, read-out: MIC.
[20] abbreviates: E. faecium DRCC 154, VRE, NCTC 12202, read-out: MIC.
[21] abbreviates: K. pn DRCC 575, ATCC 700603, read-out: MIC.

Consider `CCN1CCC[C@H]1C(=O)Nc1cc(N(C)C)c2c(c1O)C(=O)C1=C(O)[C@]3(O)C(=O)C(C(N)=O)=C(O)[C@@H](N(C)C)[C@@H]3C[C@@H]1C2` [Example 3, (S)—N-((5aR,6aS,7S,10aS)-9-carbamoyl-4,7-bis(dimethylamino)-1,8,10a,11-tetrahydroxy-10,12-dioxo-5,5a,6,6a,7,10,10a,12-octahydrotetracen-2-yl)-1-ethylpyrrolidine-2-carboxamide], for which the MIC in [1] (setting [14]) is 0.5 µg/mL (≈ 0.837 µM); in experiment [2] (setting [15]), 0.5 µg/mL (≈ 0.837 µM); in experiment [3] (setting [16]), 0.5 µg/mL (≈ 0.837 µM); in experiment [4] (setting [17]), 0.12 µg/mL (≈ 0.201 µM); in experiment [5] (setting [18]), > 32 µg/mL; in experiment [6] (setting [19]), 0.12 µg/mL (≈ 0.201 µM). Besides, the results for the minimum inhibitory concentration (MIC) in [7] (setting [20]) and in experiment [8] (setting [21]) were 0.06 µg/mL (≈ 0.1 µM) and 16 µg/mL (≈ 26.8 µM), respectively.

On to `CC(C)CN1CCC[C@H]1C(=O)Nc1cc(N(C)C)c2c(c1O)C(=O)C1=C(O)[C@]3(O)C(=O)C(C(N)=O)=C(O)[C@@H](N(C)C)[C@@H]3C[C@@H]1C2` [Example 7, (S)—N-((5aR,6aS,7S,10aS)-9-carbamoyl-4,7-bis(dimethylamino)-1,8,10a,11-tetrahydroxy-10,12-dioxo-5,5a,6,6a,7,10,10a,12-octahydrotetracen-2-yl)-1-isobutylpyrrolidine-2-carboxamide dihydrochloride], for which the minimal inhibitory concentration (MIC) turned out to be 2 µg/mL in [1]; 2 µg/mL in experiment [2]; 4 µg/mL in experiment [3]; 1 µg/mL in experiment [4]; 64 µg/mL in experiment [5]; 0.5 µg/mL in [6]. Also, the MIC in experiment [7] was 0.5 µg/mL; in experiment [8] it was 128 µg/mL.

In the case of `CCCN1CCC[C@H]1C(=O)Nc1cc(N(C)C)c2c(c1O)C(=O)C1=C(O)[C@]3(O)C(=O)C(C(N)=O)=C(O)[C@@H](N(C)C)[C@@H]3C[C@@H]1C2` [Example 4, (S)—N-((5aR,6aS,7S,10aS)-9-carbamoyl-4,7-bis(dimethylamino)-1,8,10a,11-tetrahydroxy-10,12-dioxo-5,5a,6,6a,7,10,10a,12-octahydrotetracen-2-yl)-1-propylpyrrolidine-2-carboxamide], the MIC in experiment [1] (setting [14]) is 1 µg/mL (≈ 1.63 µM); in experiment [2] (setting [15]) it was 1 µg/mL (≈ 1.63 µM); in experiment [3] (setting [16]) it was 2 µg/mL (≈ 3.27 µM); in experiment [4] (setting [17]), 0.5 µg/mL (≈ 0.817 µM); in experiment [5] (setting [18]), > 32 µg/mL; in experiment [6] (setting [19]) it was 0.25 µg/mL (≈ 0.409 µM). In addition, the minimal inhibitory concentration (MIC) was 0.12 µg/mL (≈ 0.196 µM) in experiment [7] (setting [20]) and > 32 µg/mL in [8] (setting [21]).

For the compound `CN(C)c1cc(NC(=O)[C@@H]2CCCN2C)c(O)c2c1C[C@H]1C[C@H]3[C@H](N(C)C)C(O)=C(C(N)=O)C(=O)[C@@]3(O)C(O)=C1C2=O` [Example 2, (S)—N-((5aR,6aS,7S,10aS)-9-carbamoyl-4,7-bis(dimethylamino)-1,8,10a,11-tetrahydroxy-10,12-dioxo-5,5a,6,6a,7,10,10a,12-octahydrotetracen-2-yl)-1-methylpyrrolidine-2-carboxamide], the median effective dose (ED50) in experiment [9] (ATCC49619, iv, S. pneumoniae ATCC 49619, i.v.-q.d.) was found to be 0.16 mg/kg; in experiment [9] (ATCC49619, po, S. pneumoniae ATCC 49619, p.o.-b.i.d.), 6.2 mg/kg; in experiment [10] (iv, MRSA DRCC 446, i.v.-q.d.) it was 0.77 mg/kg; in [10] (po, MRSA DRCC 446, p.o.-b.i.d.) it was 7.3 mg/kg; in [11] (ATCC29213, iv, i.v.-q.d.), 0.6 mg/kg; in experiment [11] (ATCC29213, po, p.o.-b.i.d.) it was 5.5 mg/kg. In addition, the ED50 in experiment [12] (ATCC25992, iv, E. Coli ATCC 25992, i.v.-q.d.) was 0.5 mg/kg; in experiment [12] (ATCC25992, po, E. Coli ATCC 25992, p.o.-b.i.d.) it was 12.6 mg/kg; in experiment [13] (DRCC543, iv, E faecalis DRCC 543, i.v.-q.d.), 0.28 mg/kg; in experiment [13] (DRCC543, po, E faecalis DRCC 543, p.o.-b.i.d.), 2.53 mg/kg. The minimum inhibitory concentration (MIC) is 0.12 µg/mL (≈ 0.206 µM) in experiment [1] (setting [14]); 0.25 µg/mL (≈ 0.428 µM) in [2] (setting [15]); 0.12 µg/mL (≈ 0.206 µM) in experiment [3] (setting [16]); 0.03 µg/mL (≈ 0.0514 µM) in [4] (setting [17]); 16 µg/mL (≈ 27.4 µM) in [5] (setting [18]); 0.03 µg/mL (≈ 0.0514 µM) in [6] (setting [19]). Further, the MIC in experiment [7] (setting [20]) is 0.01 µg/mL (≈ 0.0171 µM); in experiment [8] (setting [21]), 8 µg/mL (≈ 13.7 µM).

(Values after US7939513B2, “Tetracycline derivatives as antibacterial agents” (Dr. Reddy's Laboratories Limited, priority 2007, dated 2011).)
